Assay results as given in publication PMC10366102, “Dose escalation and expansion cohorts in patients with advanced breast cancer in a Phase I study of the CDK7-inhibitor samuraciclib” (Nature Communications, 2023).
Where “and” joins values, the source holds several entries; their conditions need not be identical. Equal values may be shown once. Read-outs that look alike come from different tables or passages of the source.

Key:
pCDK1/2/3 = assay: Immunohistochemistry H-score in paired tumor biopsies, pCDK1/2/3; format: in vivo, human
Description: (§1) Per-protocol ctDNA samples were taken in Module 1B-1 at screening, C1D1, C2D1 and on D1 of alternating cycles from Cycle 3; in Module 2A at screening, C1D1 and at either C2D1 (240 mg) or C2D15 (360 mg) for mutational analysis[24],[33], (Supplementary Information). pPolII in lymphocytes and pPolII and pCDK1/2/3 in core needle tissue samples from patients recruited to the paired biopsy cohort were evaluated for on-target pharmacodynamic analyses. […]
pharmacodynamic effects in tumor tissue. […]
variability in H-score was observed between sections. […]
H-scores for pre-dose and on-study biopsies and summary statistics for the observed H-score when stained for pCDK1/2/3 and pPolII are shown in Supplementary Table 11. Significance was calculated using Student’s one-tailed paired t-test, where the alternative hypothesis was that on-study samples had

cytochrome P450 enzymes = tested on: cytochrome P450 enzymes; set-up: method as in ref IB; conditions: followed by 3A4 and a small contribution by 2C19; ref IB; cited from earlier work
[1] = set-up: method as in ref IB; conditions: ref IB, cited from earlier work
[2] = tested on: tumour cell lines, including TNBC; set-up: method as in ref Patel et al, 2018 Ainscow et al, 2018; Clark et al, 2017, Ali et al, 2018; conditions: wide range of tumour cell lines, ref Patel et al, 2018 Ainscow et al, Clark et al, 2017, Ali et al; cited from earlier work
human tumour xenograft = tested on: human tumour xenograft; set-up: method as in ref IB; conditions: ref IB, cited from earlier work
rats = tested on: rats; set-up: method as in ref IB; conditions: ref IB; cited from earlier work
Ames test strains = tested on: Ames test strains; set-up: method as in ref IB; conditions: up to the lower limit of toxicity; ref IB; cited from earlier work
[3] = tested on: HR+/HER2− advanced breast cancer; assay: Module 2A anti-tumor activity (RECIST V1.1, PFS, ctDNA subgroups); format: in vivo, human
Description: A single-arm, ascending-dose study was conducted in 2 cohorts to explore the recommended dose of samuraciclib and fulvestrant in HR+/HER2− advanced breast cancer patients who had previously received, and become resistant to, a CDK4/6 inhibitor. Female patients with histologically confirmed diagnosis of breast cancer, evidence of metastatic or locally advanced disease, and documented ER+ and/or PgR+ and HER2- tumor status treated with an AI in combination with a CDK4/6i before study entry were eligible. In each cohort the dose of fulvestrant was 500 mg every 28 ± 2 days, with an additional 500 mg dose given 14 ± 2 days after the first dose. Cohort 1 tested samuraciclib 240 mg OD continuous dosing. If the DLT stopping criteria were not met, Cohort 2 commenced enrollment at the Module 1A MTD. Patients underwent regular safety monitoring and 8-week scans reported using RECIST V1.1[32].
as §1
treatment RECIST assessment. […]
number of patients in the particular analysis population. Duration of response (DoR) was defined as the time from documentation of tumor response to disease progression. Progression-free survival (PFS) was […]
cause, whichever occurred first. Efficacy results were summarized descriptively and Kaplan -Meier plots provided where appropriate. […]

[4] = Module 2A N = 25, + fulvestrant
[5] = Module 2A, 25 evaluable, + fulvestrant
[6] = Module 2A, Liver metastases (N = 14)

CC(C)c1cnn2c(NCc3ccccc3)cc(NC[C@H]3CCNC[C@@H]3O)nc12 [samuraciclib, Samuraciclib]
pCDK1/2/3 H-Score, On study, average (pCDK1/2/3; Average 240mg OD patients, pre-dose 169): 102
pCDK1/2/3 H-Score, On study, average (pCDK1/2/3; Average 360mg OD patients, pre-dose 119): 118
pCDK1/2/3 H-Score, On study, average (pCDK1/2/3; Average all patients, pre-dose 144): 110
pCDK1/2/3 H-Score, On study (pCDK1/2/3; HR+ breast cancer, breast biopsy, 360 mg OD, pre-dose 178): 112
pCDK1/2/3 H-Score, On study (pCDK1/2/3; HR+ breast cancer, liver biopsy, 240 mg OD, pre-dose 125): 90
pCDK1/2/3 H-Score, On study (pCDK1/2/3; HR+ breast cancer, liver biopsy, 240 mg OD, pre-dose 234): 151
pCDK1/2/3 H-Score, On study (pCDK1/2/3; HR+ breast cancer, liver biopsy, 360 mg OD, pre-dose 89): 128
pCDK1/2/3 H-Score, On study (pCDK1/2/3; HR+ breast cancer, liver biopsy, 360 mg OD, pre-dose 91): 113
pCDK1/2/3 H-Score, On study (pCDK1/2/3; Rhabdomyosarcoma, axilla biopsy, 240 mg OD, pre-dose 148): 64
Levels of pCDK1/2/3 in tumors (pCDK1/2/3; paired biopsy cohort): showed a reduction, although this did not reach statistical significance
CYP mediated clearance (cytochrome P450 enzymes): mainly occurs via CYP2D6
Oral bioavailability ([1]; rat): good oral bioavailability
Apparent elimination half-life (T½) ([1]; rats): 4.8 h
Plasma clearance ([1]; rats): high
Volume of distribution ([1]; rats): high volume of distribution
Cell growth inhibition [2]: broad activity
Anti-tumour efficacy (human tumour xenograft; 100 mg/kg/day): robust efficacy
Anti-tumour efficacy (human tumour xenograft; 30 and 50 mg/kg/day): moderate efficacy
Effects on CNS (Irwin) and respiratory systems (rats): No significant effects
Mutations in five strains Ames test (Ames test strains): no mutations
Patients with PR persisting ≥24 weeks ([3]; Module 2A): 2 patients
Patients with SD persisting ≥24 weeks ([3]; Module 2A): 7 patients
Progression-free survival, median (95% confidence interval) ([3]; Module 2A ITT N = 31, + fulvestrant): 3.7 months and 3.7 (1.8, 7.4) months
Best objective response: Complete response [3, 4]: 0 n (%)
Best objective response: Partial response [3, 4]: 3 (12.0) n (%)
Best objective response: Progressive disease [3, 4]: 9 (36.0) n (%)
Best objective response: Stable disease [3, 4]: 13 (52.0) n (%)
Clinical benefit rate at 24 weeks [3, 4]: 9 (36.0) n (%)
Objective response rate [3, 4]: 3 (12.0) n (%)
Clinical benefit rate at 24 weeks, overall ([3]; Module 2A, 9/25, + fulvestrant): 36.0%
Best RECIST response PR [3, 5]: 12.0%
Best RECIST response SD [3, 5]: 52.0%
Patients achieving PR ([3]; Module 2A, + fulvestrant): 3 patients
Clinical benefit rate at 24 weeks [3, 6]: 3 (21.4) n (%)
Progression-free survival, median (95% CI) [3, 6]: 2.8 months and 2.8 (1.8, 7.4) months
Clinical benefit rate at 24 weeks ([3]; Module 2A, No TP53 mutation (N = 19)): 9 (47.4) n (%)
Progression-free survival, median (95% CI) ([3]; Module 2A, No TP53 mutation (N = 20)): 7.4 months and 7.4 (3.7, NC) months
Clinical benefit rate at 24 weeks ([3]; Module 2A, No liver metastases (N = 11)): 6 (54.5) n (%)
Progression-free survival, median (95% CI) ([3]; Module 2A, No liver metastases (N = 17)): 13.8 months and 13.8 (7.4, NC) months
Clinical benefit rate at 24 weeks ([3]; Module 2A, TP53 mutation (N = 6)): 0 n (%)
Progression-free survival, median (95% CI) ([3]; Module 2A, TP53 mutation (N = 7)): 1.8 months and 1.8 (1.7, NC) months
Clinical benefit rate at 24 weeks ([3]; Module 2A, TP53 mutation group n = 6): 0%
Clinical benefit rate at 24 weeks ([3]; Module 2A, liver metastases, 3/14): 21.4%
Clinical benefit rate at 24 weeks ([3]; Module 2A, no detectable TP53 mutation, 9/19): 47.4%
Clinical benefit rate at 24 weeks ([3]; Module 2A, no liver metastases, 6/11): 54.5%
Hazard ratio for PFS, no detectable liver metastases ([3]; Module 2A, 95% CI: 0.04–0.59): 0.16
Hazard ratio for PFS, absence of TP53 mutation ([3]; Module 2A, 95% CI: 0.05-0.45): 0.14
